# Measured values taken from US20230416329A1, “A PEPTIDE WITH DISULFIDE BONDS AND INHIBITORY ACTIVITY AGAINST SERINE PROTEASES, DERIVED HYBRID PEPTIDES THEREOF, AND USES THEREOF” (INSTITUTE OF MATERIA MEDICA , CHINESE ACADEMY OF MEDICAL …, priority 2020, published 2023).
# Like-named read-outs stand apart in the source and are kept apart here. Bridge positions count the residues as written; N and C are the ends. Peptide text beside a SMILES is read from it.
# Biological target: T1, bovine trypsin (Bos taurus, UniProt P00760)
# T1 sequence (P00760 24-246): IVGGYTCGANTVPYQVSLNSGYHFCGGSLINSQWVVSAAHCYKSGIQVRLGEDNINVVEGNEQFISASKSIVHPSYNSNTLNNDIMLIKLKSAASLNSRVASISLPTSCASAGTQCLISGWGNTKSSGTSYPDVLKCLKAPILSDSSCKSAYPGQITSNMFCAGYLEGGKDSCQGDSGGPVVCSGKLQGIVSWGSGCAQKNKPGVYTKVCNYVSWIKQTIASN
# Experiment: Trypsin inhibitory activity of peptides (BApNA hydrolysis, OD405; IC50, Ki, residual activity)
# Format: biochemical
# Conditions: for IC50: trypsin 50 nM, BApNA 1.22 mM, read-out: IC50
# In short: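 Trypsin (50 nM final) preincubated with peptides at 37 °C in 50 mM Tris-HCl pH 7.8, 20 mM CaCl2; BApNA added (1.22 mM final), 260 min at 37 °C, then OD405 read. Residual activity from enzyme-only and substrate-only controls; IC50 fitted and converted to Ki via Ki=IC50/(1+S/Km), Km measured separately for BApNA.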
# [1] = Ki=IC50/(1+S/Km), Km 0.33 mM, read-out: Ki
# [2] = read-out: inhibition constant (Ki) towards trypsin
smiles,measurement,setting,value
CC[C@H](C)[C@@H]1NC(=O)[C@H](CCCCN)NC(=O)[C@@H]2CCCN2C(=O)[C@H](C)NC(=O)[C@H](CCCNC(=N)N)NC(=O)CNC(=O)[C@@H](N)CSSC[C@@H](C(=O)N[C@@H](Cc2ccccc2)C(=O)O)NC(=O)[C@H](CCCNC(=N)N)NC(=O)[C@H](CCC(N)=O)NC(=O)[C@H](CC(C)C)NC1=O [BT44] (H-CGRAPKILQRCF-OH; disulfide 1-11 (inferred); N-terminus and C-terminus assumed),IC50,,> 50000 nM
CC[C@H](C)[C@@H]1NC(=O)[C@H](CO)NC(=O)[C@H](CCCCN)NC(=O)[C@H]([C@@H](C)O)NC(=O)[C@H](C)NC(=O)[C@H](CCCNC(=N)N)NC(=O)CNC(=O)[C@@H](N)CSSC[C@@H](C(=O)O)NC(=O)[C@H](Cc2ccccc2)NC(=O)[C@H](C)NC(=O)[C@@H]2CCCN2C(=O)[C@@H]2CCCN2C1=O [BT31] (H-CGRATKSIPPAFC-OH; disulfide 1-13 (inferred); N-terminus and C-terminus assumed),IC50,,> 50000 nM
CC[C@H](C)[C@@H]1NC(=O)[C@@H]2CCCN2C(=O)[C@@H]2CCCN2C(=O)[C@H]([C@@H](C)CC)NC(=O)[C@H](CO)NC(=O)[C@H](CCCCN)NC(=O)[C@H]([C@@H](C)O)NC(=O)[C@H](Cc2ccccc2)NC(=O)[C@H](CCCNC(=N)N)NC(=O)CNC(=O)[C@@H](N)CSSC[C@@H](C(=O)N[C@@H](Cc2ccccc2)C(=O)O)NC1=O [BT52] (H-CGRFTKSIPPICF-OH; disulfide 1-12; N-terminus and C-terminus assumed),Ki,[1],30 nM
same,IC50,,130 nM
CC[C@H](C)[C@@H]1NC(=O)[C@@H]2CCCN2C(=O)[C@@H]2CCCN2C(=O)[C@H]([C@@H](C)CC)NC(=O)[C@H](CO)NC(=O)[C@H](CCCCN)NC(=O)[C@H]([C@@H](C)O)NC(=O)[C@H](C)NC(=O)[C@H](C)NC(=O)CNC(=O)[C@@H](N)CSSC[C@@H](C(=O)N[C@@H](Cc2ccccc2)C(=O)N2CCC[C@H]2C(=O)N[C@@H](CC(=O)O)C(=O)O)NC1=O [BT7] (H-CGAATKSIPPICFPD-OH; disulfide 1-12; N-terminus and C-terminus assumed),inhibitory activity against trypsin (in words),,enhanced trypsin inhibitory activity
same,Residual trypsin activity,peptide 0.000098 μM,103.5 ± 1.6%
same,Residual trypsin activity,peptide 0.0002439 μM,107.8 ± 3.2%
same,Residual trypsin activity,peptide 0.000488 μM,97.9 ± 4.3%
same,Residual trypsin activity,peptide 0.0488 μM,95.2 ± 1.1%
same,Residual trypsin activity,peptide 0.2439 μM,48.5 ± 5.3%
same,Residual trypsin activity,peptide 0.98 μM,5.7 ± 1.7%
same,Residual trypsin activity,peptide 1.463 μM,2.9 ± 1.1%
same,Residual trypsin activity,peptide 1.95 μM,1.5 ± 0.3%
same,Ki,[2],50 nM
CC[C@H](C)[C@@H]1NC(=O)[C@@H]2CCCN2C(=O)[C@@H]2CCCN2C(=O)[C@H]([C@@H](C)CC)NC(=O)[C@H](CO)NC(=O)[C@H](CCCCN)NC(=O)[C@H]([C@@H](C)O)NC(=O)[C@H](C)NC(=O)[C@H](CCCNC(=N)N)NC(=O)CNC(=O)[C@@H](N)CSSC[C@@H](C(=O)N[C@@H](Cc2ccccc2)C(=O)O)NC1=O [BT9] (H-CGRATKSIPPICF-OH; disulfide 1-12; C-terminus assumed),inhibitory activity against trypsin (in words),,excellent trypsin inhibitory activities
same,Residual trypsin activity,peptide 0.00098 μM,100.4 ± 0.6%
same,Residual trypsin activity,peptide 0.00488 μM,99.0 ± 0.5%
same,Residual trypsin activity,peptide 0.0098 μM,94.3 ± 1.3%
same,Residual trypsin activity,peptide 0.02439 μM,84.2 ± 1.9%
same,Residual trypsin activity,peptide 0.0488 μM,68.1 ± 1.4%
same,Residual trypsin activity,peptide 0.2439 μM,0.3 ± 0.0%
same,Residual trypsin activity,peptide 0.488 μM,−0.2 ± 0.1%
same,Residual trypsin activity,peptide 0.98 μM,−0.4 ± 0.0%
same,Ki,[2],10 nM
same,IC50,,70 nM
CC[C@H](C)[C@@H]1NC(=O)[C@@H]2CCCN2C(=O)[C@@H]2CCCN2C(=O)[C@H]([C@@H](C)CC)NC(=O)[C@H](CO)NC(=O)[C@H](CCCCN)NC(=O)[C@H]([C@@H](C)O)NC(=O)[C@H](C)NC(=O)[C@H](CCCNC(=N)N)NC(=O)[C@H](CC(C)C)NC(=O)[C@@H](N)CSSC[C@@H](C(=O)N[C@@H](Cc2ccccc2)C(=O)O)NC1=O [BT72] (H-CLRATKSIPPICF-OH; disulfide 1-12; N-terminus and C-terminus assumed),Ki,[1],30 nM
same,IC50,,130 nM
CC[C@H](C)[C@@H]1NC(=O)[C@H](CO)NC(=O)[C@H](CCCNC(=N)N)NC(=O)[C@H]([C@@H](C)O)NC(=O)[C@H](C)NC(=O)[C@H](CCCNC(=N)N)NC(=O)CNC(=O)[C@@H](N)CSSC[C@@H](C(=O)N[C@@H](Cc2ccccc2)C(=O)O)NC(=O)[C@H](C)NC(=O)[C@@H]2CCCN2C(=O)[C@@H]2CCCN2C1=O [BT15] (H-CGRATRSIPPACF-OH; disulfide 1-12; N-terminus and C-terminus assumed),inhibitory activity against trypsin (in words),,significant impact on their anti-trypsisn activities
CC(C)C[C@@H]1NC(=O)[C@H](CO)NC(=O)[C@H](CCCCN)NC(=O)[C@H]([C@@H](C)O)NC(=O)[C@@H](NC(=O)[C@@H](N)CCCNC(=N)N)CSSC[C@@H](C(=O)N[C@@H](CO)C(=O)O)NC(=O)[C@H](CCC(N)=O)NC(=O)[C@@H]2CCCN2C(=O)[C@@H]2CCCN2C1=O [BT65] (H-RCTKSLPPQCS-OH; disulfide 2-10; C-terminus assumed),inhibitory activity against trypsin (in words),,excellent trypsin inhibitory activities
same,Ki,[1],130 nM
CC[C@H](C)[C@@H]1NC(=O)[C@H](C)NC(=O)[C@@H]2CCCN2C(=O)[C@H]([C@@H](C)CC)NC(=O)[C@H](CO)NC(=O)[C@H](CCCCN)NC(=O)[C@H]([C@@H](C)O)NC(=O)[C@H](C)NC(=O)[C@H](CCCNC(=N)N)NC(=O)CNC(=O)[C@@H](N)CSSC[C@@H](C(=O)N[C@@H](Cc2ccccc2)C(=O)O)NC1=O [BT10] (H-CGRATKSIPAICF-OH; disulfide 1-12),inhibitory activity against trypsin (in words),,excellent trypsin inhibitory activities
same,Residual trypsin activity,peptide 0.00098 μM,99.7 ± 0.6%
same,Residual trypsin activity,peptide 0.00488 μM,99.8 ± 1.8%
same,Residual trypsin activity,peptide 0.0098 μM,95.5 ± 1.1%
same,Residual trypsin activity,peptide 0.098 μM,55.6 ± 2.3%
same,Residual trypsin activity,peptide 0.195 μM,17.2 ± 3.4%
same,Residual trypsin activity,peptide 0.488 μM,1.0 ± 0.1%
same,Residual trypsin activity,peptide 0.7317 μM,0.2 ± 0.1%
same,Residual trypsin activity,peptide 0.98 μM,−0.1 ± 0.1%
same,Ki,[2],20 nM
same,IC50,,110 nM
CC[C@H](C)[C@@H]1NC(=O)[C@@H]2CCCN2C(=O)[C@@H]2CCCN2C(=O)[C@H]([C@@H](C)CC)NC(=O)[C@H](CO)NC(=O)[C@H](CCCCN)NC(=O)[C@H]([C@@H](C)O)NC(=O)[C@H](C)NC(=O)[C@H](CO)NC(=O)CNC(=O)[C@@H](N)CSSC[C@@H](C(=O)N[C@@H](Cc2ccccc2)C(=O)N2CCC[C@H]2C(=O)N[C@@H](CC(=O)O)C(=O)O)NC1=O [BT6] (H-CGSATKSIPPICFPD-OH; disulfide 1-12; N-terminus and C-terminus assumed),inhibitory activity against trypsin (in words),,enhanced trypsin inhibitory activity
same,Residual trypsin activity,peptide 0.000488 μM,99.3 ± 7.2%
same,Residual trypsin activity,peptide 0.002439 μM,108.6 ± 7.1%
same,Residual trypsin activity,peptide 0.00488 μM,111.9 ± 7.2%
same,Residual trypsin activity,peptide 0.195 μM,77.5 ± 7.6%
same,Residual trypsin activity,peptide 0.488 μM,25.9 ± 2.9%
same,Residual trypsin activity,peptide 0.98 μM,8.5 ± 0.9%
same,Residual trypsin activity,peptide 1.95 μM,2.8 ± 0.0%
same,Residual trypsin activity,peptide 4.88 μM,1.2 ± 0.2%
same,Ki,[2],60 nM
same,IC50,,290 nM
CC[C@H](C)[C@@H]1NC(=O)[C@@H]2CCCN2C(=O)[C@@H]2CCCN2C(=O)[C@H]([C@@H](C)CC)NC(=O)[C@H](CO)NC(=O)[C@H](CCCCN)NC(=O)[C@H]([C@@H](C)O)NC(=O)[C@H](Cc2c[nH]c3ccccc23)NC(=O)[C@H](CCCNC(=N)N)NC(=O)CNC(=O)[C@@H](N)CSSC[C@@H](C(=O)N[C@@H](Cc2ccccc2)C(=O)O)NC1=O [BT57] (H-CGRWTKSIPPICF-OH; disulfide 1-12; C-terminus assumed),inhibitory activity against trypsin (in words),,excellent trypsin inhibitory activities
same,Ki,[1],30 nM
same,IC50,,130 nM
CC[C@H](C)[C@@H]1NC(=O)[C@@H]2CCCN2C(=O)[C@@H]2CCCN2C(=O)[C@H]([C@@H](C)CC)NC(=O)[C@H](CO)NC(=O)[C@H](CCCCN)NC(=O)[C@H]([C@@H](C)O)NC(=O)[C@H](C)NC(=O)[C@H](CCCNC(=N)N)NC(=O)[C@H](C)NC(=O)[C@@H](N)CSSC[C@@H](C(=O)N[C@@H](Cc2ccccc2)C(=O)O)NC1=O [BT67] (H-CARATKSIPPICF-OH; disulfide 1-12),inhibitory activity against trypsin (in words),,higher trypsin inhibitory activities
same,Ki,[1],10 nM
same,inhibitory activity against trypsin (in words),listed as SEQ ID NO: 67,excellent trypsin inhibitory activities
same,Residual trypsin activity,peptide 0.000098 μM,107.0 ± 5.5%
same,Residual trypsin activity,peptide 0.00098 μM,104.4 ± 3.9%
same,Residual trypsin activity,peptide 0.0098 μM,102.0 ± 2.4%
same,Residual trypsin activity,peptide 0.0488 μM,49.6 ± 2.8%
same,Residual trypsin activity,peptide 0.0585 μM,39.9 ± 1.7%
same,Residual trypsin activity,peptide 0.07317 μM,8.1 ± 2.5%
same,Residual trypsin activity,peptide 0.098 μM,1.5 ± 0.3%
same,Residual trypsin activity,peptide 0.98 μM,0.1 ± 0.2%
same,Residual trypsin activity,peptide 9.76 μM,0.1 ± 0.1%
same,IC50,,50 nM
CC[C@H](C)[C@@H]1NC(=O)[C@H](CO)NC(=O)[C@H](CCCNC(=N)N)NC(=O)[C@H]([C@@H](C)O)NC(=O)[C@H](C)NC(=O)[C@H](CCCNC(=N)N)NC(=O)CNC(=O)[C@@H](N)CSSC[C@@H](C(=O)N[C@@H](Cc2ccccc2)C(=O)O)NC(=O)[C@H]([C@@H](C)CC)NC(=O)[C@@H]2CCCN2C(=O)[C@H](C)NC1=O [BT20] (H-CGRATRSIAPICF-OH; disulfide 1-12 (inferred); N-terminus and C-terminus assumed),IC50,,> 50000 nM
